The source of these data is patent US20070128217A1 (priority 2003, published 2007).

Experiment [1] concerns rabbit serum obtained by immunizing a rabbit with the SARS-CoV strain Frankfurt 1. The experiment is classed as binding. Also on record: Binding of a rabbit serum to linear peptides / Binding of a rabbit serum to looped peptides / Rabbit serum linear peptides / Rabbit serum looped peptides / Binding of a rabbit serum to linear peptides of protein N of SARS-CoV Urbani (Rabbit serum linear peptides) / Binding of a rabbit serum to looped/cyclic peptides of protein N of SARS-CoV Urbani (Rabbit serum looped peptides): unit not given here.

Experiment [2] has as its system antibodies in sera from SARS patients (sera 1a, 1b, 2, 6, 37, 62, London, SARS-yellow, SARS-green). The experiment is classed as binding, human.
The test system of experiment [3] is control sera (pooled serum of ten healthy LUMC hospital workers; commercial negative donor pooled serum from the Dutch bloodbank). The experiment is classed as binding, human.

For LAFVVFLLVTLAILT, in experiment [1], the “Binding of a rabbit serum to linear peptides” value was 0.5 and the “Binding of a rabbit serum to looped peptides” value is listed as 0.2. Moreover, in experiment [2], the “Binding of serum 1a to linear peptides of protein E of SARS-CoV Urbani” value is on record as 0.8, the “Binding of serum 1a to looped/cyclic peptides of protein E of SARS-CoV Urbani” value came out at 0.5, the “Binding of serum 1b to linear peptides of protein E of SARS-CoV Urbani” value stood at 0.5 and the “Binding of serum 1b to looped/cyclic peptides of protein E of SARS-CoV Urbani” value is 0.5. Also, in experiment [2], the “Binding of serum 2 to linear peptides of protein E of SARS-CoV Urbani” value came to 0.5, the “Binding of serum 2 to looped/cyclic peptides of protein E of SARS-CoV Urbani” value turned out to be 0.5, the “Binding of serum 6 to linear peptides of protein E of SARS-CoV Urbani” value came out at 0.7 and the “Binding of serum 6 to looped/cyclic peptides of protein E of SARS-CoV Urbani” value turned out to be 0.5. In experiment [2], the “Binding of serum 37 to linear peptides of protein E of SARS-CoV Urbani” value is 0.7, the “Binding of serum 37 to looped/cyclic peptides of protein E of SARS-CoV Urbani” value is recorded as 0.6, the “Binding of serum 62 to linear peptides of protein E of SARS-CoV Urbani” value was found to be 0.7 and the “Binding of serum 62 to looped/cyclic peptides of protein E of SARS-CoV Urbani” value is given as 0.6. In experiment [2], the “Binding of serum London to linear peptides of protein E of SARS-CoV Urbani” value amounted to 0.6, the “Binding of serum London to looped/cyclic peptides of protein E of SARS-CoV Urbani” value was found to be 0.5, the “Binding of serum SARS-green to linear peptides of protein E of SARS-CoV Urbani” value came to 0.3 and the “Binding of serum SARS-green to looped/cyclic peptides of protein E of SARS-CoV Urbani” value turned out to be 0.5. Besides, in experiment [2], the “Binding of serum SARS-yellow to linear peptides of protein E of SARS-CoV Urbani” value is listed as 0.1 and the “Binding of serum SARS-yellow to looped/cyclic peptides of protein E of SARS-CoV Urbani” value is recorded as 0.4. For the same sequence, in experiment [3], the “Binding of Control Serum Blood-Bank to Looped peptides” value was 0.8, the “Binding of Control serum Blood-bank to linear peptides” value amounted to 0.6, the “Binding of Control serum LUMC to linear peptides” value was 0.5 and the “Binding of Control serum LUMC to looped peptides” value stood at 0.6.
With LAILTALRLCAYCCN, in experiment [1], the “Binding of a rabbit serum to linear peptides” value is reported as 0.6 and the “Binding of a rabbit serum to looped peptides” value came out at 0.6. In experiment [2], the “Binding of serum 1a to linear peptides of protein E of SARS-CoV Urbani” value is 0.8, the “Binding of serum 1a to looped/cyclic peptides of protein E of SARS-CoV Urbani” value came to 0.8, the “Binding of serum 1b to linear peptides of protein E of SARS-CoV Urbani” value is 0.7 and the “Binding of serum 1b to looped/cyclic peptides of protein E of SARS-CoV Urbani” value is on record as 0.4. Further, in experiment [2], the “Binding of serum 2 to linear peptides of protein E of SARS-CoV Urbani” value is 0.5, the “Binding of serum 2 to looped/cyclic peptides of protein E of SARS-CoV Urbani” value is 0.6, the “Binding of serum 6 to linear peptides of protein E of SARS-CoV Urbani” value is 0.5 and the “Binding of serum 6 to looped/cyclic peptides of protein E of SARS-CoV Urbani” value was found to be 0.5. Besides, in experiment [2], the “Binding of serum 37 to linear peptides of protein E of SARS-CoV Urbani” value amounted to 0.8, the “Binding of serum 37 to looped/cyclic peptides of protein E of SARS-CoV Urbani” value is 0.6, the “Binding of serum 62 to linear peptides of protein E of SARS-CoV Urbani” value amounted to 0.8 and the “Binding of serum 62 to looped/cyclic peptides of protein E of SARS-CoV Urbani” value is reported as 0.7. For the same sequence, in experiment [2], the “Binding of serum London to linear peptides of protein E of SARS-CoV Urbani” value was 0.5, the “Binding of serum London to looped/cyclic peptides of protein E of SARS-CoV Urbani” value is 0.4, the “Binding of serum SARS-green to linear peptides of protein E of SARS-CoV Urbani” value turned out to be 0.5 and the “Binding of serum SARS-green to looped/cyclic peptides of protein E of SARS-CoV Urbani” value is 0.5. In addition, in experiment [2], the “Binding of serum SARS-yellow to linear peptides of protein E of SARS-CoV Urbani” value turned out to be 0.2 and the “Binding of serum SARS-yellow to looped/cyclic peptides of protein E of SARS-CoV Urbani” value stood at 0.8. In experiment [3], the “Binding of Control Serum Blood-Bank to Looped peptides” value is listed as 0.7, the “Binding of Control serum Blood-bank to linear peptides” value came to 0.7, the “Binding of Control serum LUMC to linear peptides” value came out at 0.6 and the “Binding of Control serum LUMC to looped peptides” value stood at 0.8.
In the case of LFLAFVVFLLVTLAI, in experiment [1], the “Binding of a rabbit serum to linear peptides” value was determined as 0.5 and the “Binding of a rabbit serum to looped peptides” value came out at 0.3. Further, in experiment [2], the “Binding of serum 1a to linear peptides of protein E of SARS-CoV Urbani” value is recorded as 0.9, the “Binding of serum 1a to looped/cyclic peptides of protein E of SARS-CoV Urbani” value was 0.5, the “Binding of serum 1b to linear peptides of protein E of SARS-CoV Urbani” value was found to be 0.5 and the “Binding of serum 1b to looped/cyclic peptides of protein E of SARS-CoV Urbani” value came out at 0.5. Also, in experiment [2], the “Binding of serum 2 to linear peptides of protein E of SARS-CoV Urbani” value worked out at 0.9, the “Binding of serum 2 to looped/cyclic peptides of protein E of SARS-CoV Urbani” value is given as 0.6, the “Binding of serum 6 to linear peptides of protein E of SARS-CoV Urbani” value is on record as 0.7 and the “Binding of serum 6 to looped/cyclic peptides of protein E of SARS-CoV Urbani” value was 0.5. Further, in experiment [2], the “Binding of serum 37 to linear peptides of protein E of SARS-CoV Urbani” value was 0.7, the “Binding of serum 37 to looped/cyclic peptides of protein E of SARS-CoV Urbani” value stood at 0.6, the “Binding of serum 62 to linear peptides of protein E of SARS-CoV Urbani” value is 0.7 and the “Binding of serum 62 to looped/cyclic peptides of protein E of SARS-CoV Urbani” value was found to be 0.7. In experiment [2], the “Binding of serum London to linear peptides of protein E of SARS-CoV Urbani” value is reported as 0.8, the “Binding of serum London to looped/cyclic peptides of protein E of SARS-CoV Urbani” value turned out to be 0.5, the “Binding of serum SARS-green to linear peptides of protein E of SARS-CoV Urbani” value is reported as 0.5 and the “Binding of serum SARS-green to looped/cyclic peptides of protein E of SARS-CoV Urbani” value came to 0.7. Moreover, in experiment [2], the “Binding of serum SARS-yellow to linear peptides of protein E of SARS-CoV Urbani” value stood at 0.2 and the “Binding of serum SARS-yellow to looped/cyclic peptides of protein E of SARS-CoV Urbani” value was found to be 0.9. For the same sequence, in experiment [3], the “Binding of Control Serum Blood-Bank to Looped peptides” value worked out at 0.6, the “Binding of Control serum Blood-bank to linear peptides” value is listed as 0.7, the “Binding of Control serum LUMC to linear peptides” value turned out to be 0.5 and the “Binding of Control serum LUMC to looped peptides” value amounted to 0.7.
LLVTLAILTALRLCA: in experiment [1], the “Binding of a rabbit serum to linear peptides” value was 0.5 and the “Binding of a rabbit serum to looped peptides” value is reported as 0.8. Besides, in experiment [2], the “Binding of serum 1a to linear peptides of protein E of SARS-CoV Urbani” value was 0.8, the “Binding of serum 1a to looped/cyclic peptides of protein E of SARS-CoV Urbani” value was 0.7, the “Binding of serum 1b to linear peptides of protein E of SARS-CoV Urbani” value is on record as 0.4 and the “Binding of serum 1b to looped/cyclic peptides of protein E of SARS-CoV Urbani” value came to 0.1. In addition, in experiment [2], the “Binding of serum 2 to linear peptides of protein E of SARS-CoV Urbani” value amounted to 0.5, the “Binding of serum 2 to looped/cyclic peptides of protein E of SARS-CoV Urbani” value worked out at 0.6, the “Binding of serum 6 to linear peptides of protein E of SARS-CoV Urbani” value was 0.4 and the “Binding of serum 6 to looped/cyclic peptides of protein E of SARS-CoV Urbani” value came out at 0.4. Further, in experiment [2], the “Binding of serum 37 to linear peptides of protein E of SARS-CoV Urbani” value is 0.6, the “Binding of serum 37 to looped/cyclic peptides of protein E of SARS-CoV Urbani” value is reported as 0.3, the “Binding of serum 62 to linear peptides of protein E of SARS-CoV Urbani” value came to 0.6 and the “Binding of serum 62 to looped/cyclic peptides of protein E of SARS-CoV Urbani” value worked out at 0.8. In experiment [2], the “Binding of serum London to linear peptides of protein E of SARS-CoV Urbani” value is 0.5, the “Binding of serum London to looped/cyclic peptides of protein E of SARS-CoV Urbani” value is recorded as 0.4, the “Binding of serum SARS-green to linear peptides of protein E of SARS-CoV Urbani” value stood at 0.4 and the “Binding of serum SARS-green to looped/cyclic peptides of protein E of SARS-CoV Urbani” value is on record as 0.6. In addition, in experiment [2], the “Binding of serum SARS-yellow to linear peptides of protein E of SARS-CoV Urbani” value stood at 0.0 and the “Binding of serum SARS-yellow to looped/cyclic peptides of protein E of SARS-CoV Urbani” value was determined as 0.3. Moreover, in experiment [3], the “Binding of Control Serum Blood-Bank to Looped peptides” value was 0.8, the “Binding of Control serum Blood-bank to linear peptides” value amounted to 0.7, the “Binding of Control serum LUMC to linear peptides” value came to 0.3 and the “Binding of Control serum LUMC to looped peptides” value came out at 0.8.
